3 compounds from patent US20070107077A1, “Microprojectile bombardment transformation of brassica” (Pioneer Hi-Bred International, Inc., priority 2005, published 2007) can be followed below.

Where “and” joins values, the source holds several entries; their conditions need not be identical. Identical values can stand only once. Counter-ions that a name gives are not always drawn.

Design in all cases: species or system Brassica
The subject of assay [1] is non-transgenic microspores. Description: Selection kill curve using Geneticin (G418): embryo growth and survival in liquid medium. The text has this:
The objective was to determine the concentration of G418 that kills non-transgenic microspores.
(§1) Prior to this experiment, selection was done on solid medium, not in liquid medium. Using liquid selection for Brassica transgenic cells is novel. Selection in liquid medium is advantageous for at least the following reasons: (a) it allows selection at an early stage, thereby eliminating the need for subsequent transfers of explants, (b) it allows for a cleaner selection because the explants are generally smaller when they are in liquid medium and the liquid allows all the surfaces of the explant to be exposed to the selection agent, (c) it may reduce the frequency of chimeras, and (d) a lower amount of the selection agent is needed therefore reducing the toxicity to the researcher and the environment. The effect of various concentrations of kanamycin on embryo growth in liquid medium was tested. […] Accordingly, it was difficult to discriminate transgenic tissue or embryos from non-transgenic.

For assay [2], the system named is pre-incubated microspores bombarded with PHP22021 and PHP22024. Briefly: Glyphosate resistant embryo selection in liquid medium NLN-6.5S after bombardment. The procedure:
Pre-incubated microspores were used as bombarded materials. Any Brassica line that is capable of regenerating by microspore culture can be used. The microspores were cultured for 1-3 days in NLN-17S at 31.5° C, and then in NLN-10S for 4-5 days at 25° C. The constructs used in the bombardments were PHP18644, PHP21965, PHP22024, PHP22021, and PHP23560 (see Table 9). The constructs can be the full plasmid or the expression cassette only. For example, PHP22024 can be either the expression cassette or the full plasmid. The pre-incubated microspores were filtrated with sieves of pore size of […] to 36 μm. The collected microspores were used for bombardment. The microspores were loaded on a sieve 15 μm or 20 μm on two layers of filter-paper and dried for less than one minute. The microspores and sieves were transferred to osmotic medium that contained B5 components, 1 g/l MES and 0.8-1.6% gelrite, 15-21% sucrose (pH 6.0). The microspores were treated for at least one hour on the osmotic medium before bombardment. The pre-incubated microspores were bombarded with 12.5 ng to 5 μg DNA per preparation, 15-100 μg Au particles per shot, 2.5 M CaCl2, and 650-900 psi rupture disk. […] Resistant embryos were recorded after two to three weeks of culture. […]

A further assay deals with non-bombarded embryos. Briefly: Effect of kanamycin on embryo growth in liquid medium, non-bombarded embryos.
Excerpt: as §1

As for `CN[C@@H]1[C@@H](O)[C@@H](O[C@@H]2[C@@H](O)[C@H](O[C@H]3O[C@H]([C@@H](C)O)[C@@H](O)[C@H](O)[C@H]3N)[C@@H](N)C[C@H]2N)OC[C@]1(C)O` [G418, G418 disulfate salt], the “# Green embryos or with green island” value in assay [1] (G418 1.25 mg/l, disulfate salt) was 30 (paler) and 28 (paler); in assay [1] (G418 2.5 mg/l, disulfate salt) it was 14 (light green, smaller size) and 11 (light green, smaller size); in assay [1] (G418 5 mg/l) it was 0; in assay [1] (G418 10 mg/l), 0. The “concentration sufficient to differentiate transformed cells from untransformed cells (cleaner selection)” value in assay [1] (NLN with 6.5% sucrose medium) lay within 5 to 10 mg/L.
In the case of `O=C(O)CNCP(=O)(O)O` [Glyphosate, glyphosate], in assay [2] (glyphosate 0.2 mM, plasmid PHP22021), the “# embryos (abnormal)/plate” value turned out to be 0. In assay [2] (selection at 0.2 mM compared with 0.1 mM glyphosate), the “selection efficiency, false positives” value was “fewer false positive results”.
With `NC[C@H]1O[C@H](O[C@H]2[C@H](O)[C@@H](O[C@H]3O[C@H](CO)[C@@H](O)[C@H](N)[C@H]3O)[C@H](N)C[C@@H]2N)[C@H](O)[C@@H](O)[C@@H]1O` [kanamycin], the “concentration sufficient to bleach non-bombarded embryos and inhibit non-bombarded embryo growth” value in the assay on non-bombarded embryos is 10 mg/L.
